The text below walks through data of BindingDB's records for doi:10.1016/j.bmcl.2007.04.071 (Berlex Biosciences, 2007).

The target in this experiment is T1, 3-phosphoinositide-dependent protein kinase 1 (Homo sapiens, UniProt O15530).
T1 sequence (O15530 whole entry): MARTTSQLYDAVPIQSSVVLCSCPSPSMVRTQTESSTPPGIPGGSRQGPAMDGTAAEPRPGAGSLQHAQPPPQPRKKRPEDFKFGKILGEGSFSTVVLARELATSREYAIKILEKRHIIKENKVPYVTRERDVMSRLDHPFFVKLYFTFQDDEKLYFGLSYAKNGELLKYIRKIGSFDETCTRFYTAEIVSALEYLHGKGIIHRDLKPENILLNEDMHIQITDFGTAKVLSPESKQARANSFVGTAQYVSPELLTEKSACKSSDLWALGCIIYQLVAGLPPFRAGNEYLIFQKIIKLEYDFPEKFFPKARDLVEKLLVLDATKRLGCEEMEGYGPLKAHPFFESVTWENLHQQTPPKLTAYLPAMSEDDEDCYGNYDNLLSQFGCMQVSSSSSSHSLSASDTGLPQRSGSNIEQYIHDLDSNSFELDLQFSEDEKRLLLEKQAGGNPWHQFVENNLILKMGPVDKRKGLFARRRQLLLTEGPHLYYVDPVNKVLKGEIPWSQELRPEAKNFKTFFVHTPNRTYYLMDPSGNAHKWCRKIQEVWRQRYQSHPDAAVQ
Nature of the experiment: PDK1-mediated AKT2 Activation Assay (cAKT2 33P-SPA). The note with it: pH 7.2; 22 °C.

The IC50 is the concentration at which inhibition is half-maximal. High values mean weaker potency, low ones greater potency. Regarding `O=C1Nc2ccc(-c3nnn[nH]3)cc2C1=Cc1ccc[nH]1` [(3Z)-3-(1H-pyrrol-2-ylmethylidene)-5-(1H-1,2,3,4-tetrazol-5-yl)-2,3-dihydro-1H-indol-2-one], half-maximal inhibition (IC50) was put at 200 nM.
